The source made the active and inactive calls. No cut-off for these calls is given here.
Experiments:
LLC-PK1 [1] = assay: Cytotoxicity against pig LLC-PK1 cells at 1 to 20 ug/mL after 24 hrs by WST-8 assay; type: cell-based, Sus scrofa; conditions: llc-pk1, 24 h
LLC-PK1 [2] = assay: Induction of p38 phosphorylation in pig LLC-PK1 cells at 15 ug/ml by Western blot analysis; type: cell-based; conditions: Sus scrofa
LLC-PK1 [3] = assay: Decrease in intracellular ATP level in pig LLC-PK1 cells after 24 hrs by HPLC/MS analysis; type: ADME, cell-based, Sus scrofa; conditions: llc-pk1, 24 h
LLC-PK1 [4] = assay: Induction of JNK phosphorylation in pig LLC-PK1 cells at 15 ug/ml by Western blot analysis; type: cell-based; conditions: Sus scrofa
LLC-PK1 [5] = assay: Cytotoxicity against pig LLC-PK1 cells at 15 ug/ml after 6 hrs pretreated with 10 uM of ERK inhibitor PD98059 for 1 hr by WST-8 assay; type: cell-based, Sus scrofa; conditions: llc-pk1, 6 h
LLC-PK1 [6] = assay: Cytotoxicity against pig LLC-PK1 cells at 15 ug/ml after 6 hrs by WST-8 assay in presence low extracellular Na+ level (70 mM Na+); type: cell-based, Sus scrofa; conditions: llc-pk1, 6 h
LLC-PK1 [7] = assay: Induction of mitochondrial membrane depolarization in pig LLC-PK1 cells at 15 ug/ml after 3 hrs pretreated with 10 uM of mitochondrial Na+ -Ca2+ exchange inhibitor CGP for 1 hr by JC-1 staining based fluorescent microscopy; type: cell-based, Sus scrofa; conditions: llc-pk1, 3 h
LLC-PK1 [8] = assay: Cytotoxicity against pig LLC-PK1 cells at 15 ug/ml after 24 hrs by propidium iodide staining; type: cell-based, Sus scrofa; conditions: llc-pk1, 24 h
LLC-PK1 [9] = assay: Induction of ERK phosphorylation in pig LLC-PK1 cells at 15 ug/ml by Western blot analysis in presence of 2 uM […]; type: cell-based; conditions: Sus scrofa
LLC-PK1 [10] = assay: Induction of mitochondrial membrane depolarization in pig LLC-PK1 cells at 15 ug/ml after 3 hrs pretreated with 10 uM of JNK inhibitor 2 for 1 hr by JC-1 staining based fluorescent microscopy; type: cell-based, Sus scrofa; conditions: llc-pk1, 3 h
LLC-PK1 [11] = assay: Cytotoxicity against pig LLC-PK1 cells at 15 ug/ml after 6 hrs pretreated with 10 uM of mitochondrial Ca2+ uniport inhibitor RR for 20 mins by WST-8 assay; type: cell-based, Sus scrofa; conditions: llc-pk1, 6 h
LLC-PK1 [12] = assay: Cytotoxicity against pig LLC-PK1 cells at 15 ug/ml after 6 hrs pretreated with 10 uM of mitochondrial Na+ -Ca2+ exchange inhibitor CGP for 20 mins by WST-8 assay; type: cell-based, Sus scrofa; conditions: llc-pk1, 6 h
LLC-PK1 [13] = assay: Induction of JNK phosphorylation in pig LLC-PK1 cells at 15 ug/ml by Western blot analysis in presence of 2 uM […]; type: cell-based; conditions: Sus scrofa
LLC-PK1 [14] = assay: Cytotoxicity against pig LLC-PK1 cells at 15 ug/ml after 6 hrs by WST-8 assay in presence of 1 mM […] Ca2+ chelating agent EGTA; type: cell-based, Sus scrofa; conditions: llc-pk1, 6 h
LLC-PK1 [15] = assay: Cytotoxicity against pig LLC-PK1 cells at 15 ug/ml after 6 hrs by WST-8 assay in presence of 2 uM […]; type: cell-based, Sus scrofa; conditions: llc-pk1, 6 h
LLC-PK1 [16] = assay: Cytotoxicity against pig LLC-PK1 cells at 15 ug/ml after 6 hrs pretreated with 30 uM of ryanodine receptor antagonist Dant for 20 mins by WST-8 assay; type: cell-based, Sus scrofa; conditions: llc-pk1, 6 h
LLC-PK1 [17] = assay: Cytotoxicity against pig LLC-PK1 cells at 15 ug/ml after 6 hrs pretreated for 1 hr with membrane cholesterol depletion agent methyl-beta-cyclodextrin; type: cell-based, Sus scrofa; conditions: llc-pk1, 6 h
LLC-PK1 [18] = assay: Induction of apoptosis in pig LLC-PK1 cells at 15 ug/ml after 24 hrs by TUNEL assay; type: cell-based, Sus scrofa; conditions: llc-pk1, 24 h
LLC-PK1 [19] = assay: Cytotoxicity against pig LLC-PK1 cells at 15 ug/ml after 6 hrs pretreated with 1 uM of IP3 antagonist Xesto for 20 mins by WST-8 assay; type: cell-based, Sus scrofa; conditions: llc-pk1, 6 h
LLC-PK1 [20] = assay: Decrease in intracellular ATP level in pig LLC-PK1 cells at 10 ug/ml after 24 hrs by HPLC/MS analysis; type: ADME, cell-based, Sus scrofa; conditions: llc-pk1, 24 h, TDE = time-dependent effect
LLC-PK1 [21] = assay: Induction of mitochondrial membrane depolarization in pig LLC-PK1 cells at 15 ug/ml after 3 hrs by JC-1 staining based fluorescent microscopy; type: cell-based, Sus scrofa; conditions: llc-pk1, 3 h
LLC-PK1 [22] = assay: Cytotoxicity against pig LLC-PK1 cells at 20 ug/mL by WST-8 assay; type: cell-based, Sus scrofa; conditions: TDE = time-dependent effect
LLC-PK1 [23] = assay: Induction of p38 phosphorylation in pig LLC-PK1 cells at 15 ug/ml by Western blot analysis in presence of 2 uM […]; type: cell-based; conditions: Sus scrofa
LLC-PK1 [24] = assay: Induction of mitochondrial membrane depolarization in pig LLC-PK1 cells at 15 ug/ml after 3 hrs pretreated with 10 uM of mitochondrial Ca2+ uniport inhibitor RR for 1 hr by JC-1 staining based fluorescent microscopy; type: cell-based, Sus scrofa; conditions: llc-pk1, 3 h
LLC-PK1 [25] = assay: Cytotoxicity against pig LLC-PK1 cells at 15 ug/ml after 6 hrs pretreated with 10 uM of p38 MAPK inhibitor PD169316 for 1 hr by WST-8 assay; type: cell-based, Sus scrofa; conditions: llc-pk1, 6 h
LLC-PK1 [26] = assay: Cytotoxicity against pig LLC-PK1 cells at 15 ug/ml after 6 hrs pretreated for 1 hr with membrane cholesterol depletion agent methyl-beta-cyclodextrin in presence of 4% v/v cholesterol repletion condition; type: cell-based, Sus scrofa; conditions: llc-pk1, 6 h
LLC-PK1 [27] = assay: Induction of mitochondrial membrane depolarization in pig LLC-PK1 cells at 15 ug/ml after 3 hrs pretreated with 10 uM of ERK inhibitor PD98059 for 1 hr by JC-1 staining based fluorescent microscopy; type: cell-based, Sus scrofa; conditions: llc-pk1, 3 h
LLC-PK1 [28] = assay: Cytotoxicity against pig LLC-PK1 cells at 1 to 20 ug/mL after 24 hrs by LDH leakage assay; type: cell-based, Sus scrofa; conditions: llc-pk1, 24 h
LLC-PK1 [29] = assay: Induction of ERK phosphorylation in pig LLC-PK1 cells at 15 ug/ml by Western blot analysis; type: cell-based; conditions: Sus scrofa
LLC-PK1 [30] = assay: Cytotoxicity against pig LLC-PK1 cells at 15 ug/ml after 6 hrs pretreated with 10 uM of JNK inhibitor 2 for 1 hr by WST-8 assay; type: cell-based, Sus scrofa; conditions: llc-pk1, 6 h
LLC-PK1 [31] = assay: Cytotoxicity against pig LLC-PK1 cells at 20 ug/mL by LDH leakage assay; type: cell-based, Sus scrofa; conditions: TDE = time-dependent effect

Which Activity (LLC-PK1 [1]) does the source give for `C[C@@H]1[C@H](O)[C@@H](C)/C=C/C=C/C=C/C=C/C=C/C=C/C=C/[C@H](O[C@@H]2O[C@H](C)[C@@H](O)[C@H](N)[C@@H]2O)C[C@@H]2O[C@](O)(C[C@@H](O)C[C@@H](O)[C@H](O)CC[C@@H](O)C[C@@H](O)CC(=O)O[C@H]1C)C[C@H](O)[C@H]2C(=O)O` [AMPHOTERICIN B] here?
The Activity was “Dose-dependent effect”.

What about the Activity (LLC-PK1 [2]) of the same molecule?
Its Activity is “Active”.

What about the Activity (LLC-PK1 [3]) of the same molecule?
The Activity was “Dose-dependent effect”.

And the Activity (LLC-PK1 [4])?
The Activity was “Active”.

And the Activity (LLC-PK1 [5])?
Its Activity is “Non-toxic”.

What about the Activity (LLC-PK1 [6]) of the same molecule?
Its Activity is “Non-toxic”.

What about the Activity (LLC-PK1 [7]) of the same molecule?
The Activity was “Toxic”.

And the Activity (LLC-PK1 [8])?
The Activity was “Toxic”.

What about the Activity (LLC-PK1 [9]) of the same molecule?
Its Activity is “Active”.

What about the Activity (LLC-PK1 [10]) of the same molecule?
The Activity was “Toxic”.

And the Activity (LLC-PK1 [11])?
Its Activity is “Non-toxic”.

And the Activity (LLC-PK1 [12])?
Its Activity is “Non-toxic”.

What about the Activity (LLC-PK1 [13]) of the same molecule?
Its Activity is “Active”.

And the Activity (LLC-PK1 [14])?
The Activity was “Non-toxic”.

What about the Activity (LLC-PK1 [15]) of the same molecule?
Its Activity is “Toxic”.

What about the Activity (LLC-PK1 [16]) of the same molecule?
The Activity was “Non-toxic”.

What about the Activity (LLC-PK1 [17]) of the same molecule?
Its Activity is “Non-toxic”.

And the Activity (LLC-PK1 [18])?
The Activity was “Non-toxic”.

What about the Activity (LLC-PK1 [19]) of the same molecule?
Its Activity is “Toxic”.

And the Activity (LLC-PK1 [20])?
The Activity was “tde”.

And the Activity (LLC-PK1 [21])?
Its Activity is “Toxic”.

And the Activity (LLC-PK1 [22])?
The Activity was “tde”.

And the Activity (LLC-PK1 [23])?
The Activity was “Active”.

What about the Activity (LLC-PK1 [24]) of the same molecule?
The Activity was “Toxic”.

And the Activity (LLC-PK1 [25])?
Its Activity is “Non-toxic”.

And the Activity (LLC-PK1 [26])?
Its Activity is “Toxic”.

What about the Activity (LLC-PK1 [27]) of the same molecule?
The Activity was “Toxic”.

What about the Activity (LLC-PK1 [28]) of the same molecule?
The Activity was “Dose-dependent effect”.

And the Activity (LLC-PK1 [29])?
Its Activity is “Active”.

And the Activity (LLC-PK1 [30])?
Its Activity is “Non-toxic”.

What about the Activity (LLC-PK1 [31]) of the same molecule?
Its Activity is “tde”.

From ChEMBL document CHEMBL1687726, “Amphotericin B-induced renal tubular cell injury is mediated by Na+ Influx through ion-permeable pores and subsequent activation of mitogen-activated protein kinases and elevation of intracellular Ca2+ concentration” (Antimicrob Agents Chemother, 2009)
